Data taken from PMC12295440, “C-Terminal Analogues of Camostat Retain TMPRSS2 Protease Inhibition: New Synthetic Directions for Antiviral Repurposing of Guanidinium-Based Drugs in Respiratory Infections” (International Journal of Molecular Sciences, 2025).
“And” between values parts separate entries of the source, which are not always exact repeats. Equal entries are not always repeated.

Biological target: T1, TMPRSS2 (Homo sapiens, UniProt O15393)
T1 construct: purchased BPS Bioscience 780837
Test: TMPRSS2 fluorogenic protease inhibition assay (BPS Bioscience kit)
Assay type: biochemical
Details: for IC50: fluorogenic substrate, 30 min pre-incubation at room temperature, average of two independent experiments in duplicate (N = 4), read-out: IC50, in vitro TMPRSS2 enzyme inhibition

T1 sequence (O15393 whole entry): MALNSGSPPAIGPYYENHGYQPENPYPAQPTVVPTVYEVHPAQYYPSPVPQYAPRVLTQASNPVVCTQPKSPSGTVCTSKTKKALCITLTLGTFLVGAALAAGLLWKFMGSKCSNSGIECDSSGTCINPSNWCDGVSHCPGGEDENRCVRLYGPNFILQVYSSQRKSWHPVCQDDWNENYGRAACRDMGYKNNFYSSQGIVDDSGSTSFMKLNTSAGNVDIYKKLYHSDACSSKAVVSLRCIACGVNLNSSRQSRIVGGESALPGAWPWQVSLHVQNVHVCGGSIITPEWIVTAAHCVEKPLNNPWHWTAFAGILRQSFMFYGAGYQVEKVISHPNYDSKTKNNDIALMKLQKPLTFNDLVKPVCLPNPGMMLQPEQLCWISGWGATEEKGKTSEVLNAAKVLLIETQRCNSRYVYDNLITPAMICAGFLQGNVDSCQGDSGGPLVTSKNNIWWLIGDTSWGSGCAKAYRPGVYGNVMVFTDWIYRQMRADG

CNC(=O)COC(=O)Cc1ccc(OC(=O)c2ccc(NC(=N)N)cc2)cc1 [Compound 1c]
IC50: 1.27 nM and 1.3 nM

N=C(N)Nc1ccc(C(=O)Oc2ccc(CC(=O)OCC(=O)N3CCOCC3)cc2)cc1 [Compound 1d]
IC50: 1.79 nM and 1.8 nM

CN(C)C(=O)CNC(=O)Cc1ccc(NC(=O)c2ccc(NC(=N)N)cc2)cc1 [Compound 1e]
TMPRSS2 inhibition (in words) (fluorogenic assay, concentrations 0.007-0.1054 µM): fell out of the range of the assay
